From ChEMBL document CHEMBL5579877, “Design and Evaluation of 3-Phenyloxetane Derivative Agonists of the Glucagon-Like Peptide-1 Receptor” (J Med Chem, 2024)
pIC50: −log10 of the molar value. Each block holds one compound with its values, some of them ahead of it. The source made the active and inactive calls. The calls are words filed in the database; no cut-off is given here.

Legend:
[1] = biological target: T1, 5-hydroxytryptamine receptor 2A (Homo sapiens, UniProt P28223); experiment: Inhibition of 5HT2A (unknown origin) relative to control; conditions: concentration not given here
T1 sequence (P28223 whole entry): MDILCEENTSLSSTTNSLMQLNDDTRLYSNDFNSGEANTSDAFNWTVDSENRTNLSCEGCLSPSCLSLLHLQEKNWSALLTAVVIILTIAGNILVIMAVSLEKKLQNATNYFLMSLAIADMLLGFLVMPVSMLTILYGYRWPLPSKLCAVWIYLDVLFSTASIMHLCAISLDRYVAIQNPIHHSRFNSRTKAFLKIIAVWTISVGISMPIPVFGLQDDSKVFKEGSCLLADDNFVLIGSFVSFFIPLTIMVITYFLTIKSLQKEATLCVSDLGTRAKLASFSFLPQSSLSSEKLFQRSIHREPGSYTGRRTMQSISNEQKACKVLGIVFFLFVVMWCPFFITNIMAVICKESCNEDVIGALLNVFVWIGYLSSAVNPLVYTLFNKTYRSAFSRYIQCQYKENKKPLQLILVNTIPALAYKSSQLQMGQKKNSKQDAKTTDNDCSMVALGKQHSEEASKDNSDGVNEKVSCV

[2] = Drug distribution in rat liver at 5 mg/kg, po; assay type: ADME, organism-based; conditions: in vivo
[3] = biological target: T2, Glucagon-like peptide 1 receptor (Mus musculus) (UniProt O35659); experiment: Activation of mouse GLP-1R
T2 sequence (whole entry): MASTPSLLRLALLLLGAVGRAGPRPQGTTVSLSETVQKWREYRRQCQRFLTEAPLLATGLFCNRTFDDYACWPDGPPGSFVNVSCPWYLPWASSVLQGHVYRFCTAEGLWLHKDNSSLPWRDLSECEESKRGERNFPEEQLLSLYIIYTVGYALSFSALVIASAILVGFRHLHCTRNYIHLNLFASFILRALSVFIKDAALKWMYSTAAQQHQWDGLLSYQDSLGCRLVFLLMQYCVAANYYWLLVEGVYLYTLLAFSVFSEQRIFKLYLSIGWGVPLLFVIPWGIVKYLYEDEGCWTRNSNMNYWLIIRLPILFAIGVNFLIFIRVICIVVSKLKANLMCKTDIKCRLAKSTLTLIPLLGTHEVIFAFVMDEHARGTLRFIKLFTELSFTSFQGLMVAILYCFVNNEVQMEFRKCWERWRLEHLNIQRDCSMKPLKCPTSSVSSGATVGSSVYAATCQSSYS

[4] = Oral bioavailability in cynomolgus monkey at 20 mg/kg; assay type: ADME, organism-based, Macaca fascicularis; conditions: in vivo
hERG (KCNH2) [5] = biological target: T3, hERG (KCNH2) (Homo sapiens, UniProt Q12809); experiment: Inhibition of human ERG at 10 uM by whole cell patch clamp method relative to control; assay type: toxicity
T3 sequence (Q12809 whole entry): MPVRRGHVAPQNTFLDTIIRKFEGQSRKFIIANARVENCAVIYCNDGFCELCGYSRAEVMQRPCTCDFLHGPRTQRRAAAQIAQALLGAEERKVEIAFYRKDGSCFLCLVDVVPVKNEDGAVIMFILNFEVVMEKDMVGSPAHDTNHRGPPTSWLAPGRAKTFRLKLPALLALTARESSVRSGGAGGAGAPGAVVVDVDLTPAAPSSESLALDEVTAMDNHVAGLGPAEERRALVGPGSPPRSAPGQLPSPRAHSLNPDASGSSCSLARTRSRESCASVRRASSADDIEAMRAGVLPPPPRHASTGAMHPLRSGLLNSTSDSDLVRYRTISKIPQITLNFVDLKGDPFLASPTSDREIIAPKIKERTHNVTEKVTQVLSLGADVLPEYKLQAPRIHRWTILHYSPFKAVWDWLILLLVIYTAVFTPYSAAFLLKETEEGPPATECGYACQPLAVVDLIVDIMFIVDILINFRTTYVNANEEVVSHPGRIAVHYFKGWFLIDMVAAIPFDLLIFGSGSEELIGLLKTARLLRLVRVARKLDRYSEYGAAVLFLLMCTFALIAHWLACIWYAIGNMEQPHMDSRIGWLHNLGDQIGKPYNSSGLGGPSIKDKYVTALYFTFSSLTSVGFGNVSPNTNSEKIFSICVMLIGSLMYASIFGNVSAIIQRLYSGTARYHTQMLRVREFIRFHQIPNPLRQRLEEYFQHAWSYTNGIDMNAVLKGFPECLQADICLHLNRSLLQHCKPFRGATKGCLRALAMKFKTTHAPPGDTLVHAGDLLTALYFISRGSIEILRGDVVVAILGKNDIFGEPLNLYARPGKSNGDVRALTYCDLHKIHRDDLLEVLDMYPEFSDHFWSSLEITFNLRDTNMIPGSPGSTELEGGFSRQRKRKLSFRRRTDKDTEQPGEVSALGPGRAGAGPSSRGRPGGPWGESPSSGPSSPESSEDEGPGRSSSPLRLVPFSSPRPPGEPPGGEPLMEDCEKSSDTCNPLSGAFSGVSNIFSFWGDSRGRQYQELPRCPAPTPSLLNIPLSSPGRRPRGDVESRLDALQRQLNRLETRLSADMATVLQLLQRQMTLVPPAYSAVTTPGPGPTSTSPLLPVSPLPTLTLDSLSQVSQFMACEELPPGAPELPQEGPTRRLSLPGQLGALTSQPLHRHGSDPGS

[6] = Drug distribution in rat stomach at 5 mg/kg, po; assay type: ADME, organism-based; conditions: in vivo
[7] = AUC in ICR mouse at 5 mg/kg, po by LC-MS/MS analysis; assay type: ADME, organism-based; conditions: in vivo
hERG (KCNH2) [8] = biological target: T3, hERG (KCNH2); experiment: Inhibition of human ERG at 1 uM by whole cell patch clamp method relative to control; assay type: toxicity
[9] = Permeability across basolateral to apical side in human Caco-2 cells at 10 uM incubated for 120 mins by LC-MS/MS analysis; assay type: ADME, cell-based; conditions: read-out: permeability
[10] = Efflux ratio of permeability across basolateral to apical side over apical to basolateral side in human Caco-2; assay type: ADME, cell-based
[11] = biological target: T4, Glucagon-like peptide 1 receptor (Homo sapiens, UniProt P43220); experiment: Agonist activity at GLP-1R (unknown origin) assessed as beta-arrestin 1 recruitment; assay type: functional
T4 sequence (P43220 whole entry): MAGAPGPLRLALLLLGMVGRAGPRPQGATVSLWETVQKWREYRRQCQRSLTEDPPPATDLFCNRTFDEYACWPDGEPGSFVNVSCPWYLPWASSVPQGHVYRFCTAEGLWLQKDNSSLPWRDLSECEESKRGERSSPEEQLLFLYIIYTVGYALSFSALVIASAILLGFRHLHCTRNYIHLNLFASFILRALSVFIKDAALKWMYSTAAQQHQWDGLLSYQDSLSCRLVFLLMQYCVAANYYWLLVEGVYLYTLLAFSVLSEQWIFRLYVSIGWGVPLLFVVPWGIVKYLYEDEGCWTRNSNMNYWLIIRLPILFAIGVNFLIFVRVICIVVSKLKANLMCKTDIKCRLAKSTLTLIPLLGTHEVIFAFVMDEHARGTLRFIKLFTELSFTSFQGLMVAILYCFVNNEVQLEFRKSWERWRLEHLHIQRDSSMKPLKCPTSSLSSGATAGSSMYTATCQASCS

[12] = Drug distribution in rat intestine at 5 mg/kg, po; assay type: ADME, organism-based; conditions: in vivo
[13] = biological target: T4, Glucagon-like peptide 1 receptor; experiment: Activation of human GLP-1R; conditions: filed as activator
[14] = Half-life in rat at 2 mg/kg, iv by LC-MS/MS analysis; assay type: ADME, organism-based; conditions: in vivo
[15] = biological target: T5, Glucagon-like peptide 1 receptor (Rattus norvegicus) (UniProt P32301); experiment: Activation of rat GLP-1R
T5 sequence (whole entry): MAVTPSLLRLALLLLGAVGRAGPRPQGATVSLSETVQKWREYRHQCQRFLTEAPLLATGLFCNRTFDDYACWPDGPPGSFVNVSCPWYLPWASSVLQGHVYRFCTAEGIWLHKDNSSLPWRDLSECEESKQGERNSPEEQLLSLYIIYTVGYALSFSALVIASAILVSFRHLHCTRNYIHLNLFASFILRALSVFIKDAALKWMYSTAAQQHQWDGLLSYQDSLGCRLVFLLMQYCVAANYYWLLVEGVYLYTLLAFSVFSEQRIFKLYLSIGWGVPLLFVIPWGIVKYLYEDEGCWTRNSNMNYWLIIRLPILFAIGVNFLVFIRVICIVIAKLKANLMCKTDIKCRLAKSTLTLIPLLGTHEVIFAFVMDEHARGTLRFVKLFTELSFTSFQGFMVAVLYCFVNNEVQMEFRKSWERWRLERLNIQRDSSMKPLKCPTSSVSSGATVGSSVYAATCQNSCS

Cytochrome P450 2C8 = biological target: T6, Cytochrome P450 2C8 (Homo sapiens, UniProt P10632); experiment: Inhibition of CYP2C8 in human liver microsomes using paclitaxel as substrate preincubated for 5 mins followed by NADPH addition and measured after 20 mins by LC-MS/MS analysis; assay type: ADME, Microsome
T6 sequence (P10632 whole entry): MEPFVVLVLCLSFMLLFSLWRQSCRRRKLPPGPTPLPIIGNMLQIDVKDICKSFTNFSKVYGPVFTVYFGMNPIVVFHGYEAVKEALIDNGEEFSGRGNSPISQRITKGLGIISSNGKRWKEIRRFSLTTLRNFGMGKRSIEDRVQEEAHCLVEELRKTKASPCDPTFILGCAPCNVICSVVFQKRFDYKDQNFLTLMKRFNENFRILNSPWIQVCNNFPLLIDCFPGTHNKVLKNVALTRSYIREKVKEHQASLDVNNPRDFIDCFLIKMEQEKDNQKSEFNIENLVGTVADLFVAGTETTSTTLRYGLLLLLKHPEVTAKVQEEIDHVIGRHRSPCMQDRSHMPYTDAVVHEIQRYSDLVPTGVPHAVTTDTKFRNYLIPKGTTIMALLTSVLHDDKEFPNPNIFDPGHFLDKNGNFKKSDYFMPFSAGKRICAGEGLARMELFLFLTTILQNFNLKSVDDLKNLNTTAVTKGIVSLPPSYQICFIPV

[16] = biological target: T4, Glucagon-like peptide 1 receptor; experiment: Agonist activity at GLP-1R (unknown origin) assessed as beta-arrestin 2 recruitment; assay type: functional
[17] = biological target: T1, 5-hydroxytryptamine receptor 2A; experiment: Inhibition of 5HT2A (unknown origin)
Macaca mulatta = organism: Macaca mulatta; experiment: Activation of monkey GLP-1R; conditions: filed as activator
[18] = biological target: T7, 5-hydroxytryptamine receptor 1A (Homo sapiens, UniProt P08908); experiment: Inhibition of 5HT1A (unknown origin)
T7 sequence (P08908 whole entry): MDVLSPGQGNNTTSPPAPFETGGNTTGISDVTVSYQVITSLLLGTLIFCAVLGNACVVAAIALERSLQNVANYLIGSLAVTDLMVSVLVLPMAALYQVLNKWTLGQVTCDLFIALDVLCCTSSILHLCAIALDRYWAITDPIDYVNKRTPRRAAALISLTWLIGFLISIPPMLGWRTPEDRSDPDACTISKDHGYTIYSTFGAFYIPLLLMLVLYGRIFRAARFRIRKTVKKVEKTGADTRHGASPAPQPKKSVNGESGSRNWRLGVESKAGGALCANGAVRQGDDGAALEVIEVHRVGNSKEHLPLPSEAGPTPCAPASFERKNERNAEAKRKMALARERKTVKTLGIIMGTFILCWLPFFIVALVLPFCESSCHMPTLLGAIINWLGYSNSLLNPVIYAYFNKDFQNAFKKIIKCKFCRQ

[19] = Cmax in cynomolgus monkey at 20 mg/kg, po; assay type: ADME, organism-based, Macaca fascicularis; conditions: in vivo
[20] = biological target: T8, 5-hydroxytryptamine receptor 1A (Homo sapiens) (UniProt P08908); experiment: Inhibition of 5HT1A (unknown origin) relative to control; conditions: concentration not given here
T8 sequence (whole entry): T7 sequence (P08908 whole entry)

- inhibition [1]: 57.8%
- Drug uptake [2]: Active
- Activity [3]: inactive
- bioavailability [4]: 32.8%
- Drug uptake [6]: Active
- AUC [7]: 3000 ng·h/mL
- Papp B→A at 2 h, 10 µM [9]: 16.5 ×10⁻⁶ cm/s
- efflux ratio [10]: 5.26
- Activity [11]: inactive
- Drug uptake [12]: Active
- Activity [13]: Active
- half-life [14]: 12.6 min
- Activity [15]: inactive
- pIC50 (Cytochrome P450 2C8): 6.66
- Activity [16]: inactive
- pIC50 [17]: 5.06
- Activity (Macaca mulatta): Active
Compound: O=C(O)c1ccc2nc(CN3CCC(c4cccc(OCc5ccc(C6COC6)cc5F)n4)CC3)n(C[C@@H]3CCO3)c2c1
- inhibition at 10 µM (hERG (KCNH2) [5]): 40.7%
- inhibition at 1 µM (hERG (KCNH2) [8]): 3.75%

Compound: N#Cc1ccc(COc2cccc(C3CCN(Cc4nc5ccc(C(=O)O)cc5n4C[C@@H]4CCO4)CC3)n2)c(F)c1 [DANUGLIPRON]
- bioavailability [4]: 3.41%
- pIC50 [18]: 5.62
- AUC [7]: 2280 ng·h/mL
- Papp B→A at 2 h, 10 µM [9]: 21.7 ×10⁻⁶ cm/s
- Cmax [19]: 163 µM
- inhibition [20]: 86.9%
- half-life [14]: 19.2 min
- pIC50 (Cytochrome P450 2C8): 5.90
